According to patent publication US9555013B2, “Modulation of fibroblast activity” (The University of Leicester, priority 2008, dated 2017):
“Also recorded” adds a separate entry of the source.

Legend:
[1] = tested on: Human dermal fibroblasts; assay: Tethered (anchored) collagen gel model of wounded dermis; type: cell-based; settings: 10 μM, 4 days incubation; for collagen I staining in fibroblasts released from collagen gels: FIG. 8B; for smooth muscle alpha actin staining in fibroblasts released from collagen gels: FIG. 8D
Method: 50% collagen I gels were seeded with 30,000 cells per ml in the absence or presence of a β2-AR agonist or a β2-AR antagonist.

[2] = tested on: human neutrophils; assay: Secretion of VEGF from neutrophils (ELISA); type: cell-based; settings: FIG. 15; after 48 hours; vs control
Method: (§1) Human dermal fibroblasts (FIGS. 9 and 15) or human neutrophils (VEGF only) (FIG. 15) were seeded into 6-well plates and grown to 60% confluence in FM. […] The supernatants were prepared and assayed using ELISA kits for TGF-β1, TGF-β2, 15 TGF-β3 and VEGF (R & D systems) following the Manufacturer's instructions.

[3] = tested on: full-thickness 6 mm excisional wounds; assay: Murine excisional wound model with immunohistochemistry; settings: for murine wound closure (wound area): FIG. 3, 0.1% in 100 μl hydroactive gel, topical, daily
Method: FVB/NJ (β2-AR+/+) mice, were purchased from The Jackson laboratory (Bar Harbor, Me.). All animals used in the study were females between 8-12 weeks of age. β2-AR+/+ mice were anaesthetized by intraperitoneal injection of ketamine (100 mg/kg)/xylazine (10 mg/kg) (Pfizer). Back skin was shaved and two circular full-thickness 6 mm excisional wounds were created 2 cm apart, in the centre of the back, using a sterile 6 mm biopsy punch (SMS Inc.). […] Each mouse was housed separately after wounding until wound harvest. Wounds were left uncovered and digitally photographed, daily, to determine wound contraction over time. Wounds were harvested at days 3 and 5 post-wounding by carefully applying an 8 mm punch (SMS Inc.) around the original wound site and lightly pressing to form an outline on the skin. Scissors were then used to remove the wound site without damaging the delicate wound bed.
For histological analysis the wounds were fixed in an IHC zinc fixative (BD Biosciences). The zinc-fixed biopsies were bisected to ensure that sections were taken from the centre of the wound, dehydrated through an ethanol xylene series, and embedded in paraffin.
Specimens that were damaged in the histological process or otherwise non-interpretable were excluded from the study. Wound closure was quantified by measuring the wound area of each wound from the digital pictures taken every day with Image J, National Institutes of Health website. Images of the smooth muscle-alpha actin (SMA)-stained wounds were captured at 2× magnification on a Nikon SMZ-U upright microscope with Nikon ACT-1 software (as shown in FIG. 4). Image J was used to determine the area of SMA staining in each wound to calculate the mean area of SMA staining in each group (as shown in FIG. 5). Images of the collagen III stained wounds were captured at 20× magnification on a Nikon Eclipse 2000U inverted microscope with NIS-Elements software (as shown in FIG. 6). The intensity of collagen III staining was graded on a scale of 0-6, no staining receiving a score of 0 and the darkest staining receiving a score of 6 (as shown in FIG. 7). The staining of each wound was scored in a double-blind manner and the mean staining intensity was calculated for each group.

[4] = tested on: Human dermal fibroblasts; assay: Secretion of VEGF from dermal fibroblasts (ELISA); type: cell-based; settings: FIG. 15; after 48 hours; vs control
Method: as §1

[5] = tested on: Human dermal fibroblasts; assay: Secretion of TGF-β1, TGF-β2, TGF-β3 from dermal fibroblasts (ELISA); type: cell-based; settings: FIG. 9
Method: as §1

[6] = tested on: dermal fibroblasts; assay: Floating collagen gel contraction assay; type: cell-based; settings: FIG. 2; 10 nM
Method: The individual solutions were prepared and cooled to 4° C. before mixing to prevent premature gelation. The final solution contained 40% (v/v) Vitrogen, 20% DMEM, 30% DMEM with Hepes buffer, and 10% calf serum. Cells were incubated with the appropriate drug concentration for 30 minutes at 37° C. and added to the collagen gel mix just before gel casting at the concentration of 30,000 per ml. The lattices were cast, with 1.7 ml of the final solution per dish, in 35 mm bacteriologic dishes (Falcon Labware, BD Biosciences), to which fibroblasts poorly adhere. The mixture gelled within 30 minutes upon incubation at 37° C. in a humidified atmosphere of 95 percent air and 5 percent CO2.
To determine the effect of β2-AR antagonists on floating gel contraction (as shown in FIG. 2), lattices were detached from the sides of the dishes after 2 hours by rimming the edges of the dishes using a sterile […] and gently shaking the dishes until the gels slid freely. Lattice retraction was measured every day by placing the dishes over a flat ruler on a black background. To determine the effect of β2-AR agonists and antagonists on proliferation of cells in a model of the wound dermis, the gels remained anchored to the side of the dish (as shown in FIG. 8).

Row | Structure (SMILES) | collagen I staining in fibroblasts released from collagen gels [1] | smooth muscle alpha actin staining in fibroblasts released from collagen gels [1] | amount of VEGF secreted from human neutrophils [2] | murine wound closure (wound area) [3] | amount of VEGF secreted from human dermal fibroblasts [4] | increase in amount of TGF-β3 secreted ([5]; 10 μM, 24 hours, vs control) | also measured
1 | CC(C)(C)NCC(O)c1ccc(O)c(CO)c1 (stereo not drawn) [salbutamol] | decreases | decreases | decrease | delayed | decrease | 5 fold | human dermal fibroblast proliferation in collagen gels ([1]; FIG. 8C): decreases; decrease in amount of TGF-β1 secreted ([5]; 10 μM, 24 hours, vs control): 4 fold; decrease in amount of secreted TGFβ1 ([5]; 10 μM, after 24 hours, vs control): 74%
2 | CC(C)(C)NC[C@H](O)COc1nsnc1N1CCOCC1 [timolol] | – | – | increase | – | increase | – | –
3 | OCc1cc(C(O)CNCCCCCCOCCCCc2ccccc2)ccc1O (stereo not drawn) [salmeterol] | – | – | decrease | – | decrease | – | –
4 | CC(C)NCC(O)c1ccc(O)c(O)c1 (stereo not drawn) [isoproterenol] | – | – | decrease | – | decrease | – | –
5 | COc1ccc(CC(C)NCC(O)c2ccc(O)c(NC=O)c2)cc1 (stereo not drawn) [formotorol] | – | – | – | – | decrease | – | –
6 | Cc1ccc(OCC(O)C(C)NC(C)C)c2c1CCC2 (stereo not drawn) [ICI 118,551] | increases | increases | – | enhances; also recorded: acceleration | – | no effect | rigidity of human dermal fibroblast-seeded collagen gels ([1]; FIG. 8A): increases; dermal fibroblast-mediated floating collagen gel contraction [6]: enhance; smooth muscle α-actin staining / expressing cells in the wound dermis ([3]; FIGS. 4 and 5, 5 days post wounding, 0.1% topical daily, vs controls): increase; collagen III deposition (staining) in the wound dermis ([3]; FIGS. 6 and 7, 5 days post wounding, 0.1% topical daily, vs controls): increase; increase in TGF-β1 levels ([5]; 10 μM, 24 hours, vs control): 3 fold; increase in TGFβ2 levels ([5]; 10 μM, after 6 hours, vs control): 1.6 fold; increase in TGF-β2 levels ([5]; time given as 24 hours, not stated): 1.6 fold
